For series [1] the following is noted: cited from earlier work.
A short description of another series: clinical. Conditions: human, in vivo, po, 10 mg, average Cmax of ibuprofen in the CSF. The protocol:
The evaluation of the plasma and CSF levels in 24 human subjects under an IND and a phase I study followed a 10 mg or 20 mg oral administration to healthy volunteers (age 55-79).

Another series has as its system amyloid deposits. The experiment in a line: Immunohistochemical amyloid burden and density of amyloid deposits in APP/PS1 mice. It counts as in vivo, mouse. Conditions: one week of treatment.
In the next series the test system is monomeric Aβ. Nature of the series: Immunoblot of 4 kDa Aβ band (6E10, 82E1) in TBS soluble extracts of APP/PS1 mice. It counts as in vivo, mouse. The settings on record: one week i.p. treatment. Background: A western blot detects proteins with antibodies after separation by electrophoresis.
The test system of a further series is Aβ peptides. The experiment in a line: Binding to Aβ peptides.
Series [2] deals with N- and C-terminal fragments of Gaussian luciferase conjugated to Aβ42. The experiment in a line: Aβ split-luciferase complementation assay, oligomer formation in HEK293 cells. The format is cell-based. As to the method:
(§1) Aβ agglomeration and oligomer dissociation assays were performed in vitro using an Aβ splitluciferase complementation assay. […] The conditioned media from these cells was collected, 10 nM of coelenterazine was added and the luciferase activity was measured using a Wallac 1420 (PerkinElmer). […] The luciferase activity was measured.

Another series deals with T1, ISF Aβx-40 (Homo sapiens, UniProt P05067).
T1 construct: commercially available kits BNT77/BA27 for Aβ40 or BNT77/BC05 for Aβx-42; from tissue; host or cells: brain extracts (TBS, Triton, SDS) or hippocampal interstitial fluid of APPswe/PS1dE9 mice
The experiment in a line: In vivo microdialysis of ISF in APP/PS1 mice, Aβx-40. The arrangement: species or system mouse. The settings on record: 3.15 mg/kg i.p. daily for one week.

In a further series the test system is Aβ40 and Aβ42. Nature of the series: Thioflavin T Aβ fibrillization assay. Conditions: 5, 50, 5000 nM, one hour incubation at 37° C.
Series [3] concerns pre-existing Aβ42 oligomers (Gluc halves fused with Aβ42). The experiment in a line: Oligomer dissociation assay, split-luciferase, conditioned media. The format is biochemical. The settings on record: added to conditioned media, 10 nM, 10 μM or 1 mM, 12 hours. As to the method: as §1
For another series, the system named is ISF Aβ. Nature of the series: ISF Aβ half-life by reverse microdialysis with Compound E in APP/PS1 mice. It counts as in vivo, mouse. The settings on record: 3.15 mg/kg. The protocol:
The contralateral hippocampus was used for this experiment. […] Aβ levels within the ISF were measured for an additional 5 hours. The single logarithmic plot was made from Aβ levels and extrapolated the half-life of ISF Aβ.

Another series has as its target T2, Aβ42 (Homo sapiens, UniProt P05067).
T2 construct: Aberrant Aβ peptide isoforms that are 40 or 42 amino acids in length (Aβ-40/42); host or cells: synthetic
The experiment in a line: Aβ42 fibril formation by transmission electron microscopy. It counts as biochemical. As to the method:
The anti-fibrillogenic properties of cromolyn was confirmed by performing TEM analysis. […] After incubation for 48 hours, 15 μl or the Aβ42 fibril solution were adsorbed on carbon-coated EM grids for 20 min. at room temperature. After 3 washes in sterile PBS and ddH2O, the grids were allowed to dry before negative staining with 2% (w/v) uranyl-acetate water, two times for 8 min. Each grid was then briefly washed in degassed ddH2O, air dried, and imaged by TEM at a magnification of 150,000×.

Another series deals with T3, Aβx-42 (Homo sapiens, UniProt P05067).
T3 construct: commercially available kits BNT77/BA27 for Aβ40 or BNT77/BC05 for Aβx-42; from tissue; host or cells: brain extracts (TBS, Triton, SDS) or hippocampal interstitial fluid of APPswe/PS1dE9 mice
Nature of the series: Brain extract sandwich ELISA in APP/PS1 mice, Aβx-42. The format is in vivo, mouse. The settings on record: for content of TBS-soluble Aβx-42 / total level of TBS soluble Aβx-42 after 0.5 M Gdn-HCl: seven days; for content of TBS-soluble Aβx-42: APP/PS1 mice; for total level of TBS soluble Aβx-42 after 0.5 M Gdn-HCl: guanidine 37° C. 30 min. (In an ELISA, binding on a coated surface is turned into a signal by an enzyme label.)

Series [4] has as its system ISF Aβx-42 and Aβ oligomers. Nature of the series: In vivo microdialysis of ISF in APP/PS1 mice, Aβx-42 and Aβ oligomers. Set-up: species or system mouse. The settings on record: 3.15 mg/kg i.p. daily for one week; compared with ISF Aβx-40.
In a further series the test system is APP/PS1 transgenic mice. Nature of the series: Morris water maze in APP/PS1 transgenic mice. It counts as in vivo, mouse. Conditions: versus mock treatment.
Another series deals with Aβ oligomers. Nature of the series: 82E1/82E1 ELISA of Aβ oligomers in TBS soluble brain fraction of APP/PS1 mice. The format is in vivo, mouse. The settings on record: one week i.p. treatment.
A further series concerns the target T4, Aβx-40 (Homo sapiens, UniProt P05067).
T4 construct: commercially available kits BNT77/BA27 for Aβ40 or BNT77/BC05 for Aβx-42; from tissue; host or cells: brain extracts (TBS, Triton, SDS) or hippocampal interstitial fluid of APPswe/PS1dE9 mice
Nature of the series: Brain extract sandwich ELISA in APP/PS1 mice, Aβx-40. Conditions: for content of TBS-soluble Aβx-40 / total level of TBS soluble Aβx-40 after 0.5 M Gdn-HCl: seven days; for content of TBS-soluble Aβx-40: APP/PS1 mice; for total level of TBS soluble Aβx-40 after 0.5 M Gdn-HCl: guanidine 37° C. 30 min. The format is in vivo, mouse.

Setting [5] is: 3.15 mg/kg, versus PBS controls.

Where a name gives a salt, the structure may show the parent alone.

We go through 2 molecules from patent US20200338040A1, “METHODS FOR TREATING ALZHEIMER'S DISEASE AND RELATED DISORDERS” (The General Hospital Corporation, priority 2015, published 2020).

T4 sequence (P05067 672-711 limits assumed): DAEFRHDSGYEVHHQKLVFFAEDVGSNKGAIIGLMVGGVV
T3 sequence (P05067 672-713 limits assumed): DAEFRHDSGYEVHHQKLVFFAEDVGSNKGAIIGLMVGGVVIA
T1 sequence (P05067 672-711 limits assumed): as the sequence (P05067 672-711 limits assumed) above
T2 sequence (P05067 672-713 limits assumed): as the sequence (P05067 672-713 limits assumed) above
Description for Aβ40 and Aβ42: In vitro amyloid fibrillization assay was performed using synthetic Aβ peptides (rPeptide, Bogart GA) as well as thioflavin-T (Sigma-Aldrich), respectively dissolved in DMSO and in methanol.
DMSO was used as control. The progression of fibrillization was followed every 10 min. for 60 min. at room temperature by measuring the fluorescence intensity at excitation and emission wavelengths of 450 nm and 480 nm, respectively, using an M3 microplate reader. The results were normalized for background using fluorescent reading at time 0 by the software provided by the M3 plate reader.

What is called Cmax is the maximum level reached in the sampled fluid or tissue. In the case of `CC(C)Cc1ccc(C(C)C(=O)O)cc1` (racemic) [ibuprofen, (RS)-2-(4-(2-methylpropyl)phenyl) propanoic acid], in series [1], the “solubility in organic solvents such as ethanol and acetone” value is given as “readily soluble”; the solubility in water was < 1000 µg/mL. In “clinical”, the Cmax turned out to be 3.94 ± 1.29 ng/mL.

Take `O=C(O)c1cc(=O)c2c(OCC(O)COc3cccc4oc(C(=O)O)cc(=O)c34)cccc2o1` [cromolyn sodium, disodium salt of 5,5′-[(2-hydroxytrimethylene)dioxy]bis [4-oxo-4H-1-benzopyran-2-carboxylate]]: the water solubility entry in series [1] is “water soluble”. Further, in the series with amyloid deposits, the “amyloid burden and density of amyloid deposits” value was “remained unaffected”. For the same molecule, the “amounts of monomeric Aβ, 4 kDa band” value with monomeric Aβ is listed as “decreased”. Moreover, in the series on Aβ peptides, the “binding to Aβ peptides” value was “binds to Aβ peptides”. Also, in series [2], the “concentration at which the effect on luminescence could be detected” value is recorded as “above 10 μM”. Besides, the “luminescence signal, oligomer formation” value in series [2] (10 nM, 10 μM or 1 mM, 12 hours) is reported as “significantly decreased the luminescence signal in a dose-dependent manner”. In addition, the “ISF Aβx-40 level” value on ISF Aβx-40 was found to be 283 pM. Besides, on ISF Aβx-40, the “decrease of ISF Aβx-40 level” value is reported as 30%. The “Aβ40 and Aβ42 fibrillization, thioflavin T” value in the series with Aβ40 and Aβ42 is listed as “inhibited Aβ fibril formation in vitro at a nanomolar concentration”. The “luminescence signal, pre-existing oligomers” value in series [3] is “failed to impact the luminescence signal”. Besides, in the series on ISF Aβ, the “shortening of half-life of ISF Aβ versus control” value is listed as “about 50%”. For the same molecule, the “time after Compound E at which ISF Aβ levels started to decrease” value with ISF Aβ turned out to be 2 h. For the same molecule, the “formation of Aβ42 fibrils, TEM” value is “inhibited” at Aβ42 (500 nM) and “no effect was detected” at Aβ42 (lower concentration (50 nM)). Moreover, the “content of TBS-soluble Aβx-42” value at Aβx-42 (2.1 mg/kg i.p. daily) came to 40.9%; at Aβx-42 (3.15 mg/kg i.p. daily) it was 46.2%. In addition, the “total level of TBS soluble Aβx-42 after 0.5 M Gdn-HCl” value at Aβx-42 (2.1 mg/kg) was found to be 63.3%; on Aβx-42 (3.15 mg/kg), 76.1%. Besides, the “amount of Aβx-42 extracted in 2% SDS” value on Aβx-42 (setting [5]) is given as “significantly decreased”. At Aβx-42 (setting [5]), the “amount of Aβx-42 extracted in 2% triton” value is given as “significantly decreased”. For the same molecule, in [4], the “ISF Aβx-42 and Aβ oligomers” value was “performed similarly”. In addition, in the series with APP/PS1 transgenic mice, the “memory capabilities in the Morris water maze tests” value is given as “prevented lowering memory capabilities”. Further, the “levels of oligomeric aggregates, 82E1/82E1 ELISA” value in the series on Aβ oligomers was “no changes”. For the same molecule, the “content of TBS-soluble Aβx-40” value at Aβx-40 (2.1 mg/kg i.p. daily) is 39.5%; on Aβx-40 (3.15 mg/kg i.p. daily), 37.1%. Further, the results for the “total level of TBS soluble Aβx-40 after 0.5 M Gdn-HCl” value at Aβx-40 (2.1 mg/kg) and at Aβx-40 (3.15 mg/kg) were 50.7% and 44.6%, respectively. Also, the “amount of Aβx-40 extracted in 2% SDS” value at Aβx-40 (setting [5]) was “significantly decreased”. The “amount of Aβx-40 extracted in 2% triton” value at Aβx-40 (setting [5]) is “significantly decreased”.
